Experimental data taken from patent US7964623B2, “Tricyclic benzopyrane compound” (Nissan Chemical Industries Ltd., priority 2004, dated 2011).

test system: atrium; assay: Effects on the atrial effective refractory period (S1-S2 extrastimulus technique during bilateral vagal nerve stimulation) in anesthetized beagles; assay type: in vivo; settings: intravenous, 0.3 mg/kg, from 5 minutes after administration, basic cycle length 300 msec
Experimental: Effects on the Effective Refractory Period
Beagles were anesthetized with pentobarbital sodium and thoracotomy was done along the median line under a respirator and the incision was made on the pericardium to expose the heart. An electrocardiogram (ECG) was recorded using bipolar electrodes attached to the surface of the right atrial free wall, right atrial auricle, and right ventricular free wall. The vagal nerves were stimulated using an electrostimulation device with Nichrome wires inserted into the vagal nerves in the neck bilaterally. The conditions for electrostimulation to the vagal nerves were set such that the RR intervals on ECG were prolonged by about 100 msec compared with those before the stimulation was started.
Atrial and ventricular effective refractory periods were determined by S1-S2 extrastimulus technique at basic cycle length of 300 msec during bilateral vagal nerve stimulation, using programmable electric stimulator. A train of 10 basic stimuli (S1) was followed by a premature extrastimulus (S2) at 2 times diastolic threshold.
For evaluation of drug effects, the atrial and ventricular effective refractory periods were determined before drug administration, then respective compound was administrated intravenously at the dose of 0.3 mg/kg or 0.6 mg/kg, and the atrial and ventricular effective refractory periods were determined from 5 minutes after the administration.
The results were shown as the prolongation time on the atrial and ventricular effective refractory periods, i.e. [effective refractory period after drug administration]−[effective refractory period before drug administration] (msec).

In order of rising “Atrial Refractory Period (prolongation time on the atrial effective refractory period)” value:
1. CC1(C)Oc2cc3nccnc3cc2[C@H](NCCc2ccc(F)cc2)[C@H]1O.Cl (relative stereo) [Synthesis Example 61, (3R*,4S*)-9-{[2-(4-fluorophenyl)ethyl]amino}-7,7-dimethyl-8,9-dihydro-7H-pyrano[2,3-g]quinoxalin-8-ol hydrochloride]  20 ms
2. Cc1cc(Cl)nc2cc3c(cc12)OC(C)(C)[C@H](O)[C@H]3NCCc1ccc(F)cc1 (relative stereo) [Synthesis Example 23, (3R*,4S*)-7-chloro-4-{[2-(4-fluorophenyl)ethyl]amino}-2,2,9-trimethyl-3,4-dihydro-2H-pyrano[2,3-g]quinolin-3-ol]  22 ms
3. CC1(C)Oc2cc3nccnc3cc2[C@H](NCCc2ccccc2F)[C@H]1O.Cl (relative stereo) [Synthesis Example 60, (3R*,4S*)-4-{[2-(2-fluorophenyl)ethyl]amino}-2,2-dimethyl-3,4-dihydro-2H-pyrano[2,3-g]quinoxalin-3-ol hydrochloride]  22 ms
4. CC1(C)Oc2cc3nccnc3cc2[C@H](NCCc2ccccc2)[C@H]1O.O=C(O)/C=C\C(=O)O (relative stereo) [Synthesis Example 59, (3R*,4S*)-7,7-dimethyl-9-[(2-phenylethyl)amino]-8,9-dihydro-7H-pyrano[2,3-g]quinoxalin-8-ol 1 maleate]  22 ms
5. Cc1cc(Cl)nc2cc3c(cc12)OC(C)(C)[C@H](O)[C@H]3NCCC1=CCCC1 (relative stereo) [Synthesis Example 48, (3R*,4S*)-7-chloro-4-[2-(1-cyclopentenylethyl)amino]-2,2,9-trimethyl-3,4-dihydro-2H-pyrano[2,3-g]quinolin-3-ol]  23 ms
6. Cc1cc(Cl)nc2cc3c(cc12)OC(C)(C)[C@H](O)[C@H]3NCCc1ccccc1F (relative stereo) [Synthesis Example 24, (3R*,4S*)-7-chloro-4-{[2-(2-fluorophenyl)ethyl]amino}-2,2,9-trimethyl-3,4-dihydro-2H-pyrano[2,3-g]quinolin-3-ol]  23 ms
7. Cc1cc(Cl)nc2cc3c(cc12)OC(C)(C)[C@H](O)[C@H]3NCCC1CCCC1 (relative stereo) [Synthesis Example 47, (3R*,4S*)-7-chloro-4-[2-(cyclopentylethyl)amino]-2,2,9-trimethyl-3,4-dihydro-2H-pyrano[2,3-g]quinolin-3-ol]  24 ms
8. Cc1cc(Cl)nc2cc3c(cc12)OC(C)(C)[C@H](O)[C@H]3NCCc1ccc(N)cc1 (relative stereo) [Synthesis Example 26, (3R*,4S*)-4-{([2-(4-aminophenyl)ethyl]amino}-7-chloro-2,2,9-trimethyl-3,4-dihydro-2H-pyrano[2,3-g]quinolin-3-ol]  24 ms
9. Cc1cc(Cl)nc2cc3c(cc12)OC(C)(C)[C@H](O)[C@H]3NCCc1ccccc1.O=C(O)/C=C\C(=O)O (relative stereo) [Synthesis Example 19, (3R*,4S*)-7-chloro-2,2,9-trimethyl-4-[(2-phenylethyl)amino]-3,4-dihydro-2H-pyrano[2,3-g]quinolin-3-ol 1 maleate]  26 ms
10. Cc1cc(CO)nc2cc3c(cc12)OC(C)(C)[C@H](O)[C@H]3NCCc1ccccc1.O=C(O)/C=C\C(=O)O (relative stereo) [Synthesis Example 18, (3R*,4S*)-7-hydroxymethyl-2,2,9-trimethyl-4-[(2-phenylethyl)amino]-3,4-dihydro-2H-pyrano[2,3-g]quinolin-3-ol 1 maleate]  27 ms
11. Cc1cc(Cl)nc2cc3c(cc12)OC(C)(C)[C@H](O)[C@H]3NCCc1ccc(Cl)cc1 (relative stereo) [Synthesis Example 25, (3R*,4S*)-7-chloro-4-{[2-(4-chlorophenyl)ethyl]amino}-2,2,9-trimethyl-3,4-dihydro-2H-pyrano[2,3-g]quinolin-3-ol]  27 ms
12. Cc1cc(C#N)nc2cc3c(cc12)OC(C)(C)[C@H](O)[C@H]3NCCc1ccccc1.O=C(O)/C=C\C(=O)O (relative stereo) [Synthesis Example 14, (3R*,4S*)-3-hydroxy-2,2,9-trimethyl-4-[(2-phenylethyl)amino]-3,4-dihydro-2H-pyrano[2,3-g]quinoline-7-carbonitrile 1 maleate]  27 ms
13. CCCCCN[C@H]1c2cc3nc(Cl)cc(C)c3cc2OC(C)(C)[C@@H]1O.Cl (relative stereo) [Synthesis Example 52, (3R*,4S*)-7-chloro-2,2,9-trimethyl-4-(pentylamino)-3,4-dihydro-2H-pyrano[2,3-g]quinolin-3-ol hydrochloride]  28 ms
14. CCCC(O)CN[C@H]1c2cc3nc(Cl)cc(C)c3cc2OC(C)(C)[C@@H]1O (relative stereo) [Synthesis Example 58, (3R*,4S*)-7-chloro-4-[(2-hydroxypentyl)amino]-2,2,9-trimethyl-3,4-dihydro-2H-pyrano[2,3-g]quinolin-3-ol]  28 ms
15. CC1(C)Oc2cc3c(cc2[C@H](NCCc2ccccc2)[C@H]1O)OCC(=O)N3 (relative stereo) [Synthesis Example 71, (7R*,8S*)-7-hydroxy-6,6-dimethyl-8-(2-phenylethyl)amino]-4,6,7,8-tetrahydro-1,5-dioxa-4-aza-anthracene-3-one]  31 ms
16. Cc1cc(Cl)nc2cc3c(cc12)OC(C)(C)[C@H](O)[C@H]3NCCc1cccnc1 (relative stereo) [Synthesis Example 41, (3R*,4S*)-7-chloro-2,2,9-trimethyl-4-{[2-(3-pyridyl)ethyl]amino}-3,4-dihydro-2H-pyrano[2,3-g]quinolin-3-ol]  31 ms
17. CN1C(=O)COc2cc3c(cc21)OC(C)(C)[C@H](O)[C@H]3NCCc1ccccc1.Cl (relative stereo) [Synthesis Example 73, (7R*,8S*)-7-hydroxy-4,6,6-trimethyl-8-(2-phanylethylamino)-4,6,7,8-tetrahydro-1,5-dioxa-4-aza-anthracene-3-one hydrochloride]  31 ms
18. Cc1cc(Cl)nc2cc3c(cc12)OC(C)(C)[C@H](O)[C@H]3NCC(O)c1ccccc1 (relative stereo) [Synthesis Example 27, (3R*,4S*)-7-chloro-4-[(2-hydroxy-2-phenylethyl)amino]-2,2,9-trimethyl-3,4-dihydro-2H-pyrano[2,3-g]quinolin-3-ol]  32 ms

same assay, conditions: intravenous, 0.6 mg/kg, from 5 minutes after administration, basic cycle length 300 msec

In order of falling “Atrial Refractory Period (prolongation time on the atrial effective refractory period)” value:
1. Cc1ccc2cc3c(cc2n1)C(NCCc1ccccc1)C(O)C(C)(C)O3.O=C(O)/C=C\C(=O)O (racemic) [Synthesis Example 4, (±)-trans-2,2,7-Trimethyl-4-[(2-phenylethyl)amino]-3,4-dihydro-2H-pyrano[2,3-g]quinolin-3-ol 3/2 maleate]  30 ms
2. CC1(C)Oc2cc3c(cc2C(NCCc2ccccc2)C1O)NC(=O)CO3 (centres unmarked) [Synthesis Example 74, 7-Hydroxy-6,6-dimethyl-8-(2-phenylethylamino)-7,8-dihydro-1H,6H-4,5-dioxa-1-aza-anthracene-2-one]  25 ms

test system: not given; assay: not given; settings: not given

With `Cc1cc(O)nc2cc3c(cc12)OC(C)(C)[C@H](O)[C@H]3NCCc1ccccc1.O=C(O)/C=C\C(=O)O` (relative stereo) [Synthesis Example 85, (3R*,4S*)-2,2,9-trimethyl-4-[(2-phenylethyl)amino)]-3,4-dihydro-2H-pyrano[2,3-g]quinolin-3,7-diol 3/2 maleate] the melting point was 184 to 188 °C (dec.).
For `CC1(C)Oc2cc3c(CO)ccnc3cc2[C@H](NCCc2ccccc2)[C@H]1O.O=C(O)/C=C\C(=O)O` (relative stereo) [Synthesis Example 84, (3R*,4S*)-9-hydroxymethyl-2,2-dimethyl-4-[(2-phenylethyl)amino)]-3,4-dihydro-2H-pyrano[2,3-g]quinolin-3-ol 1 maleate], the melting point was 163 to 169 °C (dec.).
In the case of `CC1(C)Oc2cc3c(cc2C(NCCc2ccccc2)C1O)N(Cc1ccccc1)C(=O)C3` (centres unmarked) [Synthesis Example 90, 1-Benzyl-7-hydroxy-6,6-dimethyl-8-phenetylamino-3,6,7,8-tetrahydro-1H-pyrano[2,3-f]indole-2-one], the melting point is reported as 195 °C (dec.).
With `Cc1cc(Cl)[n+]([O-])c2cc3c(cc12)OC(C)(C)[C@H](O)[C@H]3NCCc1ccc(F)cc1.Cl` (relative stereo) the melting point was 193 to 198 °C (dec.).
With `Cc1cc(Cl)[n+]([O-])c2cc3c(cc12)OC(C)(C)[C@H](O)[C@H]3NCCc1ccccc1.Cl` (relative stereo) the melting point was 174 to 179 °C (dec.).

With `Cc1cc(CO)nc2cc3c(cc12)OC(C)(C)[C@H](O)[C@H]3NCCc1ccc(F)cc1` (relative stereo) [Synthesis Example 76, (3R*,4S*)-4-{[2-(4-fluorophenyl)ethyl]amino}-7-hydroxymethyl-2,2,9-trimethyl-3,4-dihydro-2H-pyrano[2,3-g]quinolin-3-ol] the melting point was 147 to 152 °C.
